Laboratory results from PMC5461267, “Membrane Guanylate Cyclase catalytic Subdomain: Structure and Linkage with Calcium Sensors and Bicarbonate” (Frontiers in Molecular Neuroscience, 2017).
Residue numbers refer to the chain shown, from its start.

What was measured:
[1] = target: T1, ROS-GC1 (rod outer segment guanylate cyclase type 1), full-length recombinant (Bos taurus, UniProt P55203, A1013R/N1009A); test: biochemical
T1 construct: gene GUCY2D
T1 sequence (P55203 57-1110 N1009A/A1013R): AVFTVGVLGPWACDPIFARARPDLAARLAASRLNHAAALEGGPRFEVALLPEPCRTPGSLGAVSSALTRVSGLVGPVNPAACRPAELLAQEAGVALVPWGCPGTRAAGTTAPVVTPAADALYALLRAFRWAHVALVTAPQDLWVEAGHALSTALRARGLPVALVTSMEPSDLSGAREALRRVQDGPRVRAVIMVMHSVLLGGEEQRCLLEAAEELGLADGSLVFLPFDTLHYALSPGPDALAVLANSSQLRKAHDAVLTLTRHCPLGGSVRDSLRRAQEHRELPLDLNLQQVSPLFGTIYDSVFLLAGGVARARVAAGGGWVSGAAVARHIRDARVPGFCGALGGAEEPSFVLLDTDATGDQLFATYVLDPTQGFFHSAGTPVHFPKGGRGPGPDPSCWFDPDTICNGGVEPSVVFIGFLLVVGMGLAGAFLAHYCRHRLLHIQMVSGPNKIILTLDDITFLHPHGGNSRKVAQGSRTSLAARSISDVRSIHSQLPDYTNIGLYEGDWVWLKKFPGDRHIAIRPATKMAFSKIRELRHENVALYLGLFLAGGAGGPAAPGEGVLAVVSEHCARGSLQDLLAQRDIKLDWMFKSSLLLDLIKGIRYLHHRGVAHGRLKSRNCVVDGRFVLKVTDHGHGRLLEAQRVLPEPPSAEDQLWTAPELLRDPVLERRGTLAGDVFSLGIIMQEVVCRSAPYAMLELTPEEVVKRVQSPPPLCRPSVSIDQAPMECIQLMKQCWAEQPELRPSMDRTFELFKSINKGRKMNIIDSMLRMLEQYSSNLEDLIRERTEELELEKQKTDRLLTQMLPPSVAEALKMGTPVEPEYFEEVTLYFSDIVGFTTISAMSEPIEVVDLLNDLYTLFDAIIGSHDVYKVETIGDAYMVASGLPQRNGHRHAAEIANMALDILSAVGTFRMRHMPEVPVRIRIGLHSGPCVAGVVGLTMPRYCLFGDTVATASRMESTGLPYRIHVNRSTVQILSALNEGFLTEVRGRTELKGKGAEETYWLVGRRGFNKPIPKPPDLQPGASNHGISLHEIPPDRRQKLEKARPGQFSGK

[2] = target: T2, ROS-GC1 (rod outer segment guanylate cyclase type 1), full-length recombinant (Bos taurus, UniProt P55203, A1013R/D934A); test: biochemical
T2 construct: gene GUCY2D
T2 sequence (P55203 57-1110 D934A/A1013R): T1 sequence (P55203 57-1110 N1009A/A1013R) with D878A, A953N

**Q.** Which results are given for O=C(O)O [bicarbonate]?
**A.** EC50 [1]: ~25 mM; EC50 [2]: ~30 mM
